Like-named read-outs stand apart in the source and are kept apart here.
Tests used:
[1] = test system: CB2 receptor; assay: Rat CB2 receptor binding using spleen membrane, [3H]CP55,940 displacement (Protocol III)
Procedure: III. In Vitro Protocol for Rat CB2 Receptor Binding Using Spleen Membrane
In this assay, [^3H]CP55,940 was used to bind the CB2 receptor present in a rat spleen membrane preparation which can be displaced by unlabeled ligands having affinity to the CB2 receptor.
The assay was performed according to the modified method of Rinaldi-Carmona et al., 1998 (JPET 284: 644-650). The total reaction mixture ([…]) contained Tris-BSA buffer (50 mM Tris, pH 7.4 with 1.5% BSA) or unlabeled SR144528 (N-[(1S)-endo-1,3,3-trimethyl bicyclo[2.2.1]heptan-2-yl]-5-(4-chloro-3-methylphenyl)-1-(4-methyl-benzyl)-pyrazole-3-carboxamide]) ([…]) or test samples (300 nM), [^3H]CP55,940 (1 nM) and […] of rat […] membrane. The non-specific binding was defined by […] of SR144528. The assay mixture was incubated at 37° C. for 1 hour. The reaction was then stopped by rapid filtration under vacuum using a Whatman GF/B-96 micro filter plate. A scintillation cocktail was added and radioactive counts were measured using a Topcount beta scintillation counter.
The standard and test sample dilutions were made in an assay buffer containing either ethanol or DMSO at a final concentration of 1%.
The percent (%) displacement by a test ligand was calculated by comparing the specific bound values.

[2] = molecular target: T1, hCB1 (Homo sapiens, UniProt P21554); assay: Agonism of CB1 receptors expressed in CHO cells, forskolin cAMP assay (Protocol IX.2); format: cell-based; set-up: expressed in transfected cells; host or cells: CHO (h-CB1/CHO, G418-selected); details: for activation at 10 µM: CHO
T1 sequence (P21554 whole entry): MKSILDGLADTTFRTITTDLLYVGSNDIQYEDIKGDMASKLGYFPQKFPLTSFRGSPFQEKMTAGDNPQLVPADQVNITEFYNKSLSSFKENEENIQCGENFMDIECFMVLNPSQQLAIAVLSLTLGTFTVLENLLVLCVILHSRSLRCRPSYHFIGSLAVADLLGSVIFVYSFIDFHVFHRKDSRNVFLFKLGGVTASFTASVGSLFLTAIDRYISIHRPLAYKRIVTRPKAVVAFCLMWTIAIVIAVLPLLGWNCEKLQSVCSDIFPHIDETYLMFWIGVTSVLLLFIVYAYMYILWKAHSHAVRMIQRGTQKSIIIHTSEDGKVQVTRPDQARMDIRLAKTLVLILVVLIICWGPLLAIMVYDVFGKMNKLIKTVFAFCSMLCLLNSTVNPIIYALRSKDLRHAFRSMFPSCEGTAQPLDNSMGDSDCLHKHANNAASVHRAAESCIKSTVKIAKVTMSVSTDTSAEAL
Procedure: (§1) IX. Assay for Determining Agonist and Antagonist Activity to CB1 and CB2 Receptors
2. Agonism of CB1/CB2 Receptors Expressed in CHO Cells
h-CB1/CHO or h-CB2/CHO cells were grown in HAM's F12 DMEM medium (Sigma) with 10% FBS (Hyclone), 1% penicillin-streptomycin solution and 400 μg/ml of G418 (Sigma). 5000 cells were seeded per well in a 96 well plate and incubated for 24 hours at 37° C. in 5% CO2. On the day of assay, cells were washed with warm Krebs Buffer containing 0.1% fatty acid free (FAF) BSA (Sigma) and re-suspended in the same buffer containing 1 mM IBMX. […] At the end of incubation, cells were lysed using lysis reagent from the cAMP estimation kit and cAMP was quantitated by chemiluminescence method described in the manufacturer's instructions (DiscoveRX). EC50 values were calculated from dose response curves by nonlinear regression analysis using PRISM software.

[3] = molecular target: T2, CB1 (Rattus norvegicus, UniProt P20272); assay: GTPγS binding assay, CB1 functional assay in rat cerebellar membrane (Protocol VIII); format: biochemical; set-up: 10 μg rat cerebellum membrane; from tissue; host or cells: rat cerebellum membrane, prepared in-house; details: for activation at 0.3 µM: 1 h, GTPγS binding over basal, rat cerebellar membrane, tested at 300 nM, read-out: Per Se % Stimulation; for inhibition at 0.3 µM: GTPγS binding, tested at 300 nM in presence of 1 μM WIN 55,212-2, read-out: % Inhibition of WIN-55212-2 induced stimulation
T2 sequence (P20272 whole entry): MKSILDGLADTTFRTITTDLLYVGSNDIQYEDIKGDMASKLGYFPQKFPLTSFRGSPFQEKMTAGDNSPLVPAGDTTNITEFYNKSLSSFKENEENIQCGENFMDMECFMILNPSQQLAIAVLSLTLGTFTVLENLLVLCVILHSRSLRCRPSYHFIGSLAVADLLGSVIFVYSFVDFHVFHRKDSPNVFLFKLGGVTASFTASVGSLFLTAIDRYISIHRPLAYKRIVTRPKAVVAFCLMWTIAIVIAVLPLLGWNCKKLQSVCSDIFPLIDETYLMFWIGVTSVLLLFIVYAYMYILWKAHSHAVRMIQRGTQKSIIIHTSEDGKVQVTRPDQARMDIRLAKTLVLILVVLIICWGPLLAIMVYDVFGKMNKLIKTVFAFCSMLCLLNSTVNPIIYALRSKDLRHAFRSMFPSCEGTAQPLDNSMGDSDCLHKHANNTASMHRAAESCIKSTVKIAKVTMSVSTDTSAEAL
Outline: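 Rat cerebellar membranes (10 μg) incubated 1 h at 30 °C with 0.2 nM [35S]GTPγS, 50 μM GDP, and compound at 1 μM or 300 nM, alone or with 1 μM WIN 55,212-2, in Tris/MgCl2/EGTA/NaCl pH 7.4. Filter-bound radioactivity counted; percent stimulation calculated against basal specific binding (nonspecific defined by 10 μM GTPγS).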

[4] = molecular target: T1, hCB1; assay: Antagonism of CB1 receptors expressed in CHO cells, cAMP assay against CP 55,940 (Protocol IX.1); format: cell-based; set-up: expressed in transfected cells; host or cells: CHO (h-CB1/CHO, G418-selected); details: for inhibition at 10 µM: read-out: hCB1 Antagonism
[5] = molecular target: T3, hCB2 (Homo sapiens, UniProt P34972); assay: Agonism of CB2 receptors expressed in CHO cells, forskolin cAMP assay (Protocol IX.2); format: cell-based; set-up: expressed in transfected cells; host or cells: CHO (h-CB2/CHO, G418-selected); details: cAMP
T3 sequence (P34972 whole entry): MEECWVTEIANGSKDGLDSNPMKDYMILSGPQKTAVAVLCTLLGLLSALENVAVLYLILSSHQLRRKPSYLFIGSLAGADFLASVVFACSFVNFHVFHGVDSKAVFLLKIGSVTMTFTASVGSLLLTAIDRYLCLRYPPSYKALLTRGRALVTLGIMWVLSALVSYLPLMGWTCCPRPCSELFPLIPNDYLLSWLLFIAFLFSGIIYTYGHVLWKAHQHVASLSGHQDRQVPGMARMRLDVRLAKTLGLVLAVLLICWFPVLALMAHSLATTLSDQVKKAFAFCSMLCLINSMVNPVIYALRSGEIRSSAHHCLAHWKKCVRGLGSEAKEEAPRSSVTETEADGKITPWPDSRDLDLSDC
Outline: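 CHO cells expressing h-CB2 were treated with compound in Krebs buffer with 0.1% FAF BSA and 1 mM IBMX, plus 10 uM forskolin, for 30 minutes at room temperature. cAMP in lysates was measured by chemiluminescence. EC50 was derived by nonlinear regression of dose–response curves, with CP 55,940 at 10 μM as reference for CB2.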

[6] = molecular target: T3, hCB2; assay: Antagonism of CB2 receptors expressed in CHO cells, cAMP assay against CP 55,940 (Protocol IX.1); format: cell-based; set-up: expressed in transfected cells; host or cells: CHO (h-CB2/CHO, G418-selected); details: h-CB2/CHO cells, vs 10 nM CP 55,940; for inhibition at 10 µM: CHO
Procedure: as §1
1. Antagonism of CB1/CB2 Receptors Expressed in CHO Cells.
h-CB1/CHO or h-CB2/CHO cells were grown in HAM's F12 DMEM medium (Sigma) with 10% FBS (Hyclone), 1% penicillin-streptomycin solution and 400 μg/ml of G418 (Sigma). 5000 cells were seeded per well in a 96 well plate and incubated for 24 hours at 37° C. in 5% CO2. On the day of assay, cells were washed with warm Krebs buffer containing 0.1% fatty acid free (FAF) BSA (Sigma) and re-suspended in the same buffer containing 1 mM IBMX. Test antagonist or reference compound (AM 251 (1-(2,4-dichlorophenyl)-5-(4-iodophenyl)-4-methyl-N-(1-piperidyl)pyrazole-3-carboxamide) for CB1 and SR144528 for CB2) diluted in FAFBSA+IBMX+Krebs buffer was added to the cells and incubated for 10 minutes at room temperature. CP 55,940 (30 nM final concentration for CB1 testing and 10 nM of the same for CB2 testing) was added to cells followed by forskolin (10 μM final concentration) and incubated for 30 minutes at room temperature. At the end of incubation, cells were lysed using lysis reagent from the cAMP estimation kit and cAMP was quantitated by the chemiluminescence method described in the manufacturer's instructions (DiscoveRX). EC50 values were calculated from dose response curves by nonlinear regression analysis using PRISM software.

[7] = molecular target: T3, hCB2; assay: In vitro binding assay using hCB2-CHO membranes, [3H]-CP-55,940 displacement (Protocol IV); set-up: expressed in transfected cells; host or cells: CHO (hCB2-CHO, generated in-house); details: for inhibition at 0.3 µM: 1 h, read-out: % Displacement Protocol IV
Outline: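 Displacement of [3H]-CP-55,940 (0.75 nM) from membranes of CHO cells expressing human CB2 (25-50 μg) was measured in Tris-BSA buffer pH 7.4 with 5 mM MgCl2, 1 mM EDTA, 0.1% BSA, 1 h at 30 °C. Test compounds were at 300 nM final; nonspecific binding defined with 0.5 μM CP-55,940. Values are % displacement of specific binding.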

[8] = molecular target: T2, CB1; assay: Rat CB1 receptor binding using brain membrane, [3H]SR141716A displacement (Protocol I); set-up: CB1 receptor present in a rat brain membrane preparation; from tissue; host or cells: rat brain membrane; inhibition: dose or concentration left out as unconfirmed; details: 1 h
[9] = test system: neuropathic hyperalgesia; assay: Neuropathic hyperalgesia model, partial sciatic nerve ligation (Seltzer's model, Protocol V); format: in vivo; details: rat, 1 mg/kg I.P., paw pressure, 0.5 and 1 hour postdose
Procedure: V. Neuropathic Hyperalgesia Model—Partial Sciatic Nerve Ligation (Seltzer's Model)
This protocol was performed with the compound of Example 294 at 0.01, 0.1, 0.3, and 1 mg/kg (I.P.), and gabapentin at 100 mg/kg (I.P.) to evaluate the ability of the compound of Example 294 in reducing neuropathic hyperalgesia. The Seltzer method is also generally described in Seltzer et al., Pain 1990, 43:205-18. • 1. Rats were anesthetised using ketamine/xylazine (40/5 mg/kg/ml, i.p.). After induction of anaesthesia, the left thigh was shaved and cleaned. • 2. The left sciatic nerve was exposed at mid thigh level through a small incision. • 3. The nerve was cleared from adhering muscle tissue. • 4. One half of the nerve thickness was tightly ligated just after the bifurcation of common sciatic nerve using 7.0 silk sutures. • 5. The wound was closed with muscle and skin sutures and povidone was applied. • 6. […] Paw withdrawal thresholds were recorded for both the ipsilateral and the contralateral hind paws before (predose) and 0.5 and 1 hour after drug or vehicle administration (postdose). • 9. […]
The threshold withdrawal latency (naïve, predose & postdose) values are represented as mean±SEM. […] The percent reversal of neuropathic mechanical hyperalgesia was calculated from withdrawal threshold latency values according to the following formula: […]

[10] = molecular target: T1, hCB1; assay: In vitro binding assay using hCB1-CHO membranes, [3H]-CP-55,940 displacement (Protocol II); set-up: expressed in transfected cells; host or cells: CHO (hCB1-CHO, generated in-house)
Outline: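 Incubated 1 h at 37° C, stopped by rapid vacuum filtration on PEI-precoated GF/B filters, bound radioactivity counted by liquid scintillation.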

[11] = at 10 uM, h-CB1/CHO cells, cAMP
[12] = at 10 uM, h-CB1/CHO cells, cAMP, vs 30 nM CP 55,940
[13] = hCB2-CHO membranes, [3H]-CP-55,940 displacement
[14] = h-CB2/CHO cells, read-out: hCB2 Agonism IC50

| Compound | % Displacement Protocol III [1] [%] | melting point [°C] | IC50 [2] [µM] | activation at 0.3 µM [3] [%] | inhibition at 0.3 µM [3] [%] | activation at 10 µM [2, 11] [%] | inhibition at 10 µM [4, 12] [%] | inhibition at 10 µM [6] [%] | IC50 [5, 14] [µM] | further results |
| --- | --- | --- | --- | --- | --- | --- | --- | --- | --- | --- |
| C[C@H](NC(=O)c1nn(-c2ccc(Cl)cc2)c2c1C1CC3CC(C1)CC2C3)c1ccccc1 [Example 117] | 59.8 | 85 to 86 | 0.0189 | 4.4 | 55.7 |  |  |  |  |  |
| CC(C)(NC(=O)c1nn(-c2ccc(Cl)cc2)c2c1C1CC3CC(C1)CC2C3)c1ccccc1 [Example 119] | 85.2 | 181 | 0.0383 | 46 | 38.9 |  |  |  |  | inhibition at 10 µM ([4]; CHO): 18.4% |
| O=C(NCc1ccccc1)c1n[nH]c2c1C1CC3CC(CC2C3)C1 [Example 186, N(7)-Benzyl-5,6-diazatetracyclo[7.3.1.1^3,11.0^4,8]tetradeca-4(8)-6-diene-7-carboxamide] |  |  |  |  |  | 29.4 | 0 | 21 |  | IC50 ([5]; hCB2 Agonism IC50, h-CB2/CHO cells): 0.00851 µM; inhibition at 0.3 µM [7, 13]: 59.1%; inhibition ([8]; rat brain membrane, [3H]SR141716A displacement, read-out: % Displacement Protocol I): 17.2% |
| CC(C)(NC(=O)c1nn(-c2ccc(F)cc2F)c2c1C1CCC2C1)c1ccccc1 (stereo not shown) [Example 294, N(3)-(1-Methyl-1-phenylethyl)-1-(2,4-difluorophenyl)-4,5,6,7-tetrahydro-1H-4,7-methano-indazole-3-carboxamide] |  | 105 |  | 103 | 9.8 |  |  |  |  | reversal of neuropathic hyperalgesia [9]: significantly reversed neuropathic hyperalgesia; inhibition ([8]; read-out: % Displacement Protocol I, rat brain membrane, [3H]SR141716A displacement): 111% |
| O=C(NCC1CCOCC1)c1nn(-c2ccc(F)cc2F)c2c1C1CCC2C1 (stereo not shown) [Example 316, N(3)-(Tetrahydro-2H-4-pyranmethyl)-1-(2,4-difluorophenyl)-4,5,6,7-tetrahydro-1H-4,7-methano-indazole-3-carboxamide] |  |  |  |  |  |  |  |  | 0.0012 to 0.00427 | hCB1 Agonism [2, 11]: 18.53% at; hCB1 Antagonism [4, 12]: 2% at 10 uM; hCB2 Antagonism ([6]; at 10 uM): 37.63% at; % Displacement Protocol II [10]: 13.83%; % Displacement Protocol IV [7, 13]: 66.65% |
| CC(C)(C)NC(=O)c1nn(-c2ccc(F)cc2)c2c1C1CCC2C1 (stereo not shown) [Example 323, N(3)-(tert-Butyl)-1-(4-fluorophenyl)-4,5,6,7-tetrahydro-1H-4,7-methano-indazole-3-carboxamide] |  | 131 to 133 |  |  |  | 0 | 0 | 18 | 0.0141 | inhibition at 0.3 µM [7]: 82.5% |
